How the values were obtained:
BACE1 = assay: Screening for ALT-59 derivatives with BACE1 protein levels as indicator, U-87 MG cells; assay type: cell-based; details: 2 days, concentrations as indicated in FIGS. 15-17
Procedure: Additional experiments were performed to screen for compounds with higher potency and the ability to penetrate blood brain barrier using BACE1 protein levels as an indicator. U-87 MG cells were cultured as described previously and treated for 2 days with compounds at concentrations as indicated in FIGS. 15-17. Cells were then subjected to Western blotting analysis using anti-BACE1 and anti-beta-actin antibodies.

Phe508del-CFTR = Phe508del-CFTR localization, immunofluorescence microscopy, primary bronchial epithelial cells of a cystic fibrosis patient; assay type: cell-based, human; details: primary bronchial epithelial cells homozygous for Phe508del-CFTR, 4 μM, 3 days
Procedure: MDA-MB-231 and U-87 MG cells were cultured on cover slips under the conditions as described above. Cells were treated with DMSO or 4 μM ALT-59 for 3 days. Primary human bronchial epithelial cells isolated from cystic fibrosis patient homozygous for Phe508del-CFTR (Lifeline Cell Technology) were cultured on cover slips in BronchiaLife Cell Culture Medium supplemented with BrochiaLife LifeFactors Kit (Lifeline Cell Technology) and maintained at 37° C. in a CO2 incubator. Cells were treated with DMSO, 4 μM ALT-59, 2 μM ALT-308, or 4 μM ALT-410 for 3 days.
Cells were fixed in 4% paraformaldehyde for 15 minutes and permeabilized in 0.1% Triton X-100 for 2 minutes. After being blocked in 5% BSA (Sigma-Aldrich), cells were incubated with anti-CFTR antibody (Alomone Labs) followed by Alexa Fluor 488 anti-rabbit secondary antibody. Reagents were buffered in GIBCO PBS (Phosphate-Buffered Saline). Images were taken using Carl Zeiss LSM 510 Laser Scanning Microscope. Parameters were set identical for all images.

For CCCOc1ccc(C2Nc3ccc4ccccc4c3C3=C2C(=O)CCC3)cc1 (centres unmarked) [ALT-410, 5-(4-propoxyphenyl)-2,3,5,6-tetrahydrobenzo[a]phenanthridin-4(1H)-one], the BACE1 protein expression (BACE1) was “capable of lowering BACE1 expression” and the “localization of Phe508del-CFTR on the plasma membrane” value (Phe508del-CFTR) was “increased localization of Phe508del-CFTR on the plasma membrane”.

— patent US20230095021A1, “MODULATORS OF TDP-43” (Alteron Therapeutics, Inc., priority 2019, published 2023)
